From patent US6534659B2, “Sufidomaidocarboxylic acids, method for production thereof, and use therefor” (Nippon Shokubai Co., Ltd., priority 2000, dated 2003)

Columns and labels:
[1] = Ability to inhibit corrosion by polarization resistance (Rp), iron electrodes; design: ability to inhibit corrosion: concentration or dose not given beside the values; conditions: for Ability to inhibit corrosion After 20 min. / Ability to inhibit corrosion After 15 hrs / Ability to inhibit corrosion Peak: Electrode Fe; for ability to inhibit corrosion / Rp: iron electrode, sodium salt
[2] = Ability to inhibit corrosion by polarization resistance (Rp), low-carbon steel electrodes (X65); conditions: Electrode X65

Structure (SMILES) | Ability to inhibit corrosion After 20 min. [1] | Ability to inhibit corrosion After 15 hrs [1] | Ability to inhibit corrosion Peak [1] | ability to inhibit corrosion ([1]; after the elapse of 25 minutes) | ability to inhibit corrosion ([1]; after the elapse of 15 hours) | ability to inhibit corrosion ([1]; peak) | ability to inhibit corrosion ([1]; after the elapse of 20 minutes) | Ability to inhibit corrosion After 20 min. [2] | Ability to inhibit corrosion After 15 hrs [2] | Ability to inhibit corrosion Peak [2] | Rp ([1]; after the elapse of 20 minutes) | Rp ([1]; after the elapse of 15 hours) | Rp ([1]; peak)
CC1(C)SCCN1C(=O)CCC(=O)O [Example 3, N-(2-carboxylethylcarbonyl)-2,2-dimethylthiazolidine] | 71.4% | 97.8% | 98.1% | 71.4% | 97.8% | 98.1% |  |  |  |  |  |  | 
CC1(C)SCCN1C(=O)c1ccccc1C(=O)O [Example 1, N-(2-carboxybenzoyl)-2,2-dimethylthiazolidine] | 48% | 96.3% | 98.5% |  | 96.3% | 98.5% | 47.6% | 71.0% | 94.7% | 97.2% |  |  | 
CC1(C)SCCN1C(=O)C=CC(=O)O [Example 2, N-(2-carboxylvinylcarbonyl)-2,2-dimethylthiazolidine] |  |  |  |  | 95.5% | 98.1% | 55.0% |  |  |  | 200 Ω | 2000 Ω | about 4800 Ω
CC1(C)SCCN1C(=O)C1CCCCC1C(=O)O (stereo not drawn) [Example 4, N-(2-carboxylcyclohexylcarbonyl)-2,2-dimethylthiazolidine] |  |  |  |  | 98.3% | 98.8% | 95.9% |  |  |  | 640 Ω | 5300 Ω | about 7450 Ω
